Reference: patent US9107830B2, “Inhibitors of crystallization in a solid dispersion” (ABBVIE, INC., priority 1999, dated 2015)
“Also recorded” adds a separate entry of the source.

Experiments:
[1] = Aungst et al., Int. J. Pharm. 156, 79 (1997); cited from earlier work
[2] = X-ray powder diffraction of freshly prepared solid dispersions (physical form of drug in matrix); assay type: physicochemical
Procedure: (§1) An X-ray powder diffraction (XPD) pattern was obtained with a Scintag® XDS 2000 θ/θ diffraction system equipped with a 2 kW normal focus X-ray tube and a liquid nitrogen cooled germanium solid state detector.
The samples were prepared by dissolving ABT-538 in a small volume of 200 proof ethanol in a 250 ml round bottom flask. The flask was vortexed and then placed in a water bath maintained at 75° C. The PEG 8000 was added to the hot alcohol solution with continual swirling until the PEG melted. The flask was then attached to a rotary evaporator, immersed in the water bath (75° C.) under vacuum for 15 minutes to remove the ethanol. After the majority of ethanol had evaporated, the flask was immersed in an ice bath for 15 minutes. The contents of the flask were then vacuum dried at room temperature overnight to remove residual alcohol. The dispersion was removed from the flask, gently ground, and sized to 40-100 mesh size. The drug loads used for these dispersions were 10, 20 and 30% w/w.
The solid dispersion of 30% ABT-538 in 95:5 PEG8000:PVP was prepared by dissolving the ABT-538 and PVP 17 PF in a small volume of 200 proof ethanol in a 250 ml round bottom flask. The remainder of the process was as described above. A 30% ABT-538 dispersion in 85:15 PEG8000:PVP was also prepared similarly as were dispersions of 10 or 20% PVP 17 PF in PEG 8000 without drug.
(§2) Both fenofibrate and PEG 8000 were sized to 40-100 mesh prior to mixing with a spatula on weighing paper. The mixture was then added to a 25 ml beaker and heated to 85° C. in a water bath until the all the material had melted. The molten solution was then poured onto a chilled X-ray sample holder to rapidly solidify the solution. The solid sample was immediately used to monitor the crystallization rate via X-ray powder diffraction.
Fenofibrate (40-100 mesh) was added to the 90:10 PEG 8000:PVP control dispersion (see above) which was also sized to 40-100 mesh and mixed with spatula on a piece of weighing paper. The mixture was then processed as described above for the 15% fenofibrate dispersion in PEG 8000.
Both griseofulvin and PEG 8000 were sized to 40-100 mesh prior to mixing on a weighing paper with a spatula. The sample was then added to an 4 ml stainless steel vessel which was sealed under a N2 atmosphere. The vessel was then immersed into an oil bath maintained at 180° C. […]
A similar plot is shown in FIG. 2 with PVP incorporated into the matrix. […] Crystallization kinetics were determined by heating the samples to 85° C., holding them isothermally for predetermined times followed by heating through the melting transition temperature of ABT-538. The heats of fusion were determined and ratioed against the heat of fusion of the drug melting in the physical mixture, giving the fraction crystallized. […]

[3] = XPD rate of crystallization upon storage at 25° C.; assay type: physicochemical
Procedure: as §1, §2
The figure illustrates that the fenofibrate is X-ray-amorphous within the matrix. Again, the fenofibrate is amorphous. Upon storage at 25° C., the fenofibrate begins to crystallize in the PEG 8000 matrix within 1 hour (FIG. 10). Additional crystallization follows up to 12 hours, when the experiment was terminated.
Similar XPD patterns for the griseofulvin dispersion in PEG 8000 and 80:20 PEG 8000:PVP matrices are shown in FIGS. 12 and 13, respectively. In both instances, amorphous griseofulvin is isolated within the respective matrices. […] However, in the presence of PVP (FIG. 15), crystallization is not observed even after 15 hours under the same conditions.

[4] = DSC crystallization kinetics, isothermal hold at 85° C.; assay type: physicochemical; settings: PVP in matrix versus PEG
Procedure: DSC measurements were made using a Mettler DSC 30 unit. Samples (4-7 mg) were sealed in standard 40 μl aluminum crucibles with a single hole punched in the lids. An empty crucible of the same type was used as a reference.
A similar plot is shown in FIG. 2 with PVP incorporated into the matrix. […] A similar plot is seen in FIG. 4 for the PEG:PVP dispersion. The endotherm associated with drug melting can clearly be discerned from the other components. Thus, it is possible to follow the kinetics of ABT-538 crystallization via DSC measurements. Crystallization kinetics were determined by heating the samples to 85° C., holding them isothermally for predetermined times followed by heating through the melting transition temperature of ABT-538. The heats of fusion were determined and ratioed against the heat of fusion of the drug melting in the physical mixture, giving the fraction crystallized.

[5] = Isothermal calorimetry (TAM) of recrystallization at 40° C.; assay type: physicochemical
Procedure: The recrystallization reactions of 30% ABT-538 in PEG or PEG:PVP (95:5) solid dispersions were monitored via isothermal calorimetry (Thermometric 2277 Calorimeter) at 40° C. Since crystallization is an exothermic process, a positive power output indicates crystallization. The magnitude of the power output at any time is proportional to the rate of crystallization. XPD was used to confirm crystallization.
The crystallization rate was also followed via the heat associated with crystallization of ABT-538 using a isothermal calorimetry. The shapes and magnitudes of the crystallization peaks in FIG. 6 indicate that ABT-538 crystallizes more readily in the PEG matrix as compared to the PEG:PVP matrix. This stabilizing effect of PVP is also reflected in the times required for complete crystallization (time to reach baseline) which were <10 hours for PEG and >30 hours for PEG:PVP (95:5).

[6] = XPD monitoring for crystalline drug in samples held at 50° C.; assay type: physicochemical
Procedure: An X-ray powder diffraction (XPD) pattern was obtained with a Scintag® XDS 2000 θ/θ diffraction system equipped with a 2 kW normal focus X-ray tube and a liquid nitrogen cooled germanium solid state detector. An additional study was performed with a dispersion containing 15% PVP. The samples were held at 50° C. (above the Tg of ABT-538) and X-ray diffraction patterns were measured over time to monitor for the appearance of crystalline ABT-538.

[7] = PEG 8000:PVP matrix, 30% ABT-538, 15% fenofibrate (90:10) or 15% griseofulvin (80:20)
[8] = PEG 8000 matrix, 30% ABT-538, 15% fenofibrate or 15% griseofulvin

Compound	effect of PEG solid dispersion formulation on bioavailability [1]	physical form of drug in the solid dispersion by XPD [2, 7]	physical form of drug in the solid dispersion by XPD [2, 8]	time at which drug begins to crystallize (XPD) ([3]; 15% drug in PEG 8000 matrix, storage at 25° C.)	time without crystallization observed (XPD) ([3]; 15% griseofulvin in 80:20 PEG 8000:PVP, 25° C.) [h]	effect of PVP within the matrix on crystallization rate (percent crystallized from heat of fusion) [4]	effect of PVP within the matrix on crystallization rate (percent crystallized from heat of fusion) ([4]; listed as ritonavir)	time required for complete crystallization (time to reach baseline) ([5]; 30% ABT-538 in PEG solid dispersion) [h]	time required for complete crystallization (time to reach baseline) ([5]; 30% ABT-538 in PEG:PVP (95:5) solid dispersion) [h]	time at which crystalline drug is detected (XPD) ([6]; PEG8000 alone, detected at this time and before) [h]	time held without crystalline ABT-538 present (XPD) ([6]; dispersion containing 15% PVP) [h]
O=C1N(Cc2ccc(CO)cc2)[C@H](Cc2ccccc2)[C@H](O)[C@@H](O)[C@@H](Cc2ccccc2)N1Cc1ccc(CO)cc1 [DMP 323]	unable to improve the bioavailability	–	–	–	–	–	–	–	–	–	–
COC1=CC(=O)C[C@@H](C)[C@]12Oc1c(Cl)c(OC)cc(OC)c1C2=O [griseofulvin]	–	amorphous	amorphous	one	> 15	–	–	–	–	–	–
CC(C)c1nc(CN(C)C(=O)NC(C(=O)NC(Cc2ccccc2)CC(O)C(Cc2ccccc2)NC(=O)OCc2cncs2)C(C)C)cs1 [ABT-538, (2S,3S,5S)-5-(N—(N—((N-methyl-N-((2-isopropyl-4-thiazolyl)-methyl)amino)carbonyl)-L-valinyl)amino-2-(N-((5-thiazolyl)methoxy-carbonyl)-amino)-1,6-diphenyl-3-hydroxyhexane]	–	Amorphous; also recorded: not crystalline	Amorphous; also recorded: not crystalline	–	–	suppresses the crystallization rate	slower	< 10	> 30	≤ 233	> 272
